Laboratory results taken from the OligoGym collection.
Values joined by “and” are separate entries in the source; they are usually repeats but may differ in a detail not shown here. Identical values can stand only once. After the bases stand the sugars from the 5' end (letter, count) and the backbone: PS all phosphorothioate, else s phosphorothioate and o phosphodiester by linkage. Methylation of C is not given here. e = 2'-O-(2-methoxyethyl) (MOE); k = constrained ethyl (cEt); d = 2'-deoxy (DNA)

What was measured:
IRF4 = settings: ASO
HSD17B13 = settings: ASO, HepaRG, 1 µM

| Sequence | target mRNA inhibition (IRF4; SK-MEL-28, 4 µM) | further results |
| --- | --- | --- |
| AAAAGCCCAAAATAGG (sugars k3 d10 k3, PS) | -12% | – |
| AAAAGGTTCCTGTCAC (sugars k3 d10 k3, PS) | – | target mRNA inhibition (IRF4; MM.1R, 1 µM): -5% |
| AAACACCCCTTCTTGT (sugars k3 d10 k3, PS) | -13% | – |
| AAACAGAGACGCGGTG (sugars k3 d10 k3, PS) | 18% | – |
| AAACCAGTACAGTCCA (sugars k3 d10 k3, PS) | – | target mRNA inhibition (IRF4; MM.1R, 1 µM): -23% |
| AAACGAGAACGCACGG (sugars k3 d10 k3, PS) | – | target mRNA inhibition (IRF4; MM.1R, 1 µM): 9% |
| AAACGAGTTGACACAG (sugars k3 d10 k3, PS) | 20% | – |
| AAACGCAGAGCCAGTA (sugars k3 d10 k3, PS) | 37% | – |
| AAACTATAATTGGCAC (sugars k3 d10 k3, PS) | 30% | – |
| AAAGAAACGAGTTGAC (sugars k3 d10 k3, PS) | – | target mRNA inhibition (IRF4; MM.1R, 1 µM): 14% |
| AAAGACCCCAGCTATG (sugars k3 d10 k3, PS) | 23% | – |
| AAAGGGTAAGCACTGA (sugars k3 d10 k3, PS) | – | target mRNA inhibition (IRF4; MM.1R, 1 µM): 19% |
| AAATAAGATCCCACGA (sugars k3 d10 k3, PS) | – | target mRNA inhibition (IRF4; MM.1R, 1 µM): -7% |
| AAATCACTTGTCTTGG (sugars k3 d10 k3, PS) | 49% | – |
| AACAAAAGGTTCCCGC (sugars k3 d10 k3, PS) | 40% | – |
| AACAAATTAAAGAGCG (sugars k3 d10 k3, PS) | 23% | – |
| AACAATACTGTAAGGG (sugars k3 d10 k3, PS) | 51% | – |
| AACAATCCTGTACACT (sugars k3 d10 k3, PS) | 22% | – |
| AACACGGGAATTTCCA (sugars k3 d10 k3, PS) | 73% | – |
| AACAGATAACGAGGTG (sugars k3 d10 k3, PS) | -4% | – |

| Sequence | target mRNA inhibition (IRF4; SK-MEL-28, 4 µM) | further results |
| --- | --- | --- |
| AACCAGCCCTTGCTGC (sugars k3 d10 k3, PS) | 21% | – |
| AACCGCTGAACTGAAA (sugars k3 d10 k3, PS) | 13% | – |
| AACCGCTGGCAGGTGG (sugars k3 d10 k3, PS) | 40% | – |
| AACCGGTAGAGTGAGA (sugars k3 d10 k3, PS) | 6% | – |
| AACGAGTTGACACAGG (sugars k3 d10 k3, PS) | 55% | – |
| AACGGAAGTTTACACT (sugars k3 d10 k3, PS) | 59% | – |
| AACTAATGTCCCCAGG (sugars k3 d10 k3, PS) | – | target mRNA inhibition (IRF4; MM.1R, 1 µM): -12% |
| AACTAGTCGACAGCTA (sugars k3 d10 k3, PS) | – | target mRNA inhibition (IRF4; MM.1R, 1 µM): -7% |
| AACTGCAGCACCGTGG (sugars k3 d10 k3, PS) | 45% | – |
| AACTGGATTGATGTGA (sugars k3 d10 k3, PS) | 77% | – |
| AACTTATAGCACTCTC (sugars k3 d10 k3, PS) | 28% | – |
| AACTTTCACCTGTGGG (sugars k3 d10 k3, PS) | 50% | – |
| AACTTTTACCTGGTAT (sugars k3 d10 k3, PS) | 28% | – |
| AAGAAGCACTGGCATC (sugars k3 d10 k3, PS) | 23% | – |
| AAGAATGGCGCATAGG (sugars k3 d10 k3, PS) | 81% | target mRNA inhibition (IRF4; MM.1R, 0.0625 µM): -1% and 19%; target mRNA inhibition (IRF4; MM.1R, 0.25 µM): 12% and 27%; target mRNA inhibition (IRF4; MM.1R, 1 µM): 28% and 42%; target mRNA inhibition (IRF4; MM.1R, 4 µM): 55% and 66% |
| AAGACTATTAGATAAG (sugars k3 d10 k3, PS) | 22% | – |
| AAGATCTCCATGGTGC (sugars k3 d10 k3, PS) | – | target mRNA inhibition (IRF4; MM.1R, 0.0625 µM): 4%; target mRNA inhibition (IRF4; MM.1R, 0.25 µM): 10%; target mRNA inhibition (IRF4; MM.1R, 1 µM): 39% and 29%; target mRNA inhibition (IRF4; MM.1R, 4 µM): 56% |
| TTGAGATAAAGCTGCC (sugars kkdddddddddkekek, PS) | – | target mRNA inhibition (HSD17B13): 2% |
| TTGAGATAAAGCTGCC (sugars kkkdddddkdddkkke, PS) | – | target mRNA inhibition (HSD17B13): 43% |
